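Briefly, cells in 96-well plates were exposed to five compound concentrations for 48 h, and endpoints were estimated by linear interpolation. The concentration for 50% growth inhibition is given as GI50.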 Active and inactive are the calls of the source. No stated cut-off is given here; in the data, active = GI50 up to about 1.1 µM and inactive = higher.
Tests used:
Test in all cases: inhibition of tumour cell growth, NCI panel, 48 h
SNB-75 = system: SNB-75
HT-29 = system: HT-29
MDA-MB-231 = system: MDA-MB-231
SF-295 = system: SF-295
OVCAR-8 = system: OVCAR-8
A549 = system: A549
HOP-62 = system: HOP-62
U-251 = system: U-251
HCT-15 = system: HCT-15
Hs-578T = system: Hs-578T
MDA-MB-435 = system: MDA-MB-435
SNB-19 = system: SNB-19
CAKI-1 = system: CAKI-1
K562 = system: K562
SK-MEL-2 = system: SK-MEL-2
KM12 = system: KM12
COLO 205 = system: COLO 205
SK-MEL-5 = system: SK-MEL-5
ACHN = system: ACHN

Structure (SMILES) | GI50 (SNB-75) | GI50 (HT-29) | GI50 (MDA-MB-231) | GI50 (SF-295) | GI50 (OVCAR-8) | GI50 (A549) | GI50 (HOP-62) | GI50 (U-251) | GI50 (HCT-15) [µM] | GI50 (Hs-578T) | GI50 (MDA-MB-435) | GI50 (SNB-19) | GI50 (CAKI-1) | GI50 (K562) | GI50 (SK-MEL-2) | GI50 (KM12) | GI50 (COLO 205) | GI50 (SK-MEL-5) | GI50 (ACHN)
C=C(C)[C@@]1(O[Si](C)(C)C)CCCC[C@@H]1CC(Sc1ccccc1)Sc1ccccc1 | 12.1 µM (inactive) | 19.7 µM (inactive) | 16.8 µM (inactive) | 12.4 µM (inactive) | 16.1 µM (inactive) | 10.1 µM (inactive) | 13.8 µM (inactive) | 16 µM (inactive) | 12.3 | 13.4 µM (inactive) | 15.6 µM (inactive) | 16.4 µM (inactive) | 12.9 µM (inactive) | 12.7 µM (inactive) | 15 µM (inactive) | 10.6 µM (inactive) | 19.9 µM (inactive) | 16.3 µM (inactive) | 15.4 µM (inactive)
C=C1C(C2(C)C=CC(=O)OC3(C)COC(=O)CC32)C(OC=O)C(OC(=O)C(O)C(C)CC)C2(C)C(c3ccoc3)CC(OC(C)=O)C12O (configuration not stated) | 50.5 µM (inactive) | 32.8 µM (inactive) | > 100 µM (inactive) | 84.1 µM (inactive) | > 100 µM (inactive) | > 100 µM (inactive) | > 100 µM (inactive) | > 100 µM (inactive) | 84.3 | > 100 µM (inactive) | 40 µM (inactive) | > 100 µM (inactive) | > 100 µM (inactive) | > 100 µM (inactive) | 64.3 µM (inactive) | 34 µM (inactive) | 81.8 µM (inactive) | 35 µM (inactive) | 75.9 µM (inactive)
CCOC(=O)/C=C(/C(=O)OCC)n1ccc(=O)n(/C(=C/C(=O)OCC)C(=O)OCC)c1=O | 16.9 µM (inactive) | 7.74 µM (inactive) | 16.6 µM (inactive) | 25.6 µM (inactive) | 8.79 µM (inactive) | 17.3 µM (inactive) | 25.9 µM (inactive) | 14.6 µM (inactive) | 2.19 | 20.9 µM (inactive) | 8.34 µM (inactive) | 20.3 µM (inactive) | 1.66 µM (inactive) | 2.99 µM (inactive) | 12.7 µM (inactive) | 17.2 µM (inactive) | 1.95 µM (inactive) | 14.5 µM (inactive) | 3 µM (inactive)
O=C(CN(c1ccc(S(=O)(=O)O)cc1)c1ccc(S(=O)(=O)O)cc1)Nn1cnc2ccc(S(=O)(=O)N(c3ccc(S(=O)(=O)O)cc3)c3ccc(S(=O)(=O)O)cc3)cc2c1=O | > 100 µM (inactive) | > 100 µM (inactive) | > 100 µM (inactive) | > 100 µM (inactive) | > 100 µM (inactive) | > 100 µM (inactive) | > 100 µM (inactive) | > 100 µM (inactive) | > 100 | > 100 µM (inactive) | > 100 µM (inactive) | > 100 µM (inactive) | > 100 µM (inactive) | > 100 µM (inactive) | > 100 µM (inactive) | > 100 µM (inactive) | > 100 µM (inactive) | > 100 µM (inactive) | > 100 µM (inactive)
COc1cc(Nc2nc3ccccc3nc2C(C)C)cc(OC)c1OC | > 100 µM (inactive) | 36.4 µM (inactive) | > 100 µM (inactive) | 82.8 µM (inactive) | 73.3 µM (inactive) | > 100 µM (inactive) | > 100 µM (inactive) | > 100 µM (inactive) | 90.4 | > 100 µM (inactive) | > 100 µM (inactive) | > 100 µM (inactive) | > 100 µM (inactive) | > 100 µM (inactive) | > 100 µM (inactive) | > 100 µM (inactive) | > 100 µM (inactive) | > 100 µM (inactive) | > 100 µM (inactive)
CC1C2Cc3ccc(O)cc3C1(C)CCN2C (configuration not stated) | 86.7 µM (inactive) | > 100 µM (inactive) | > 100 µM (inactive) | > 100 µM (inactive) | > 100 µM (inactive) | > 100 µM (inactive) | > 100 µM (inactive) | > 100 µM (inactive) | > 100 | > 100 µM (inactive) | > 100 µM (inactive) | > 100 µM (inactive) | > 100 µM (inactive) | > 100 µM (inactive) | > 100 µM (inactive) | > 100 µM (inactive) | > 100 µM (inactive) | > 100 µM (inactive) | > 100 µM (inactive)
N[C@@H]1CCN(c2c(F)cc3c(=O)c(C(=O)O)cn4c3c2Oc2cc3c(ccc5ccccc53)cc2-4)C1 | 2.89 µM (inactive) | 0.585 µM (active) | 4.56 µM (inactive) | 3.68 µM (inactive) | 1.7 µM (inactive) | 3.29 µM (inactive) | 4.82 µM (inactive) | 0.906 µM (active) | 1.69 | 15.9 µM (inactive) | 3.24 µM (inactive) | 3.3 µM (inactive) | 6.27 µM (inactive) | 2.54 µM (inactive) | 5.18 µM (inactive) | 5.32 µM (inactive) | 4.45 µM (inactive) | 2.92 µM (inactive) | 1.54 µM (inactive)
CC1(C)COC2=C(C1)C(=O)c1ccccc1C2=O | 1.63 µM (inactive) | 2.53 µM (inactive) | 2.04 µM (inactive) | 1.63 µM (inactive) | 0.493 µM (active) | 2.26 µM (inactive) | 1.99 µM (inactive) | 1.43 µM (inactive) | 0.701 | 2.88 µM (inactive) | 0.195 µM (active) | 1.97 µM (inactive) | 2.23 µM (inactive) | 0.102 µM (active) | 1.91 µM (inactive) | 1.76 µM (inactive) | 2.2 µM (inactive) | 0.71 µM (active) | 1.55 µM (inactive)

— ChEMBL document CHEMBL1201862, “PubChem BioAssay data set” (2004)
